Laboratory results as given in publication PMC6271551 (2014).

System: F21T (DNA, G4) GGGTTAGGGTTAGGGTTAGGG
Assay: FRET melting
Details: 0.1 M KCl, 10 mM sodium cacodylate pH 7.2, 0.25 µM DNA

ΔTm (50 µM compound)	ΔTm (120 µM compound, authors: almost no interaction)	Structure (SMILES)
~ 15.5 °C	–	COc1ccc2cc3[n+](cc2c1OC)CCc1cc2c(cc1-3)OCO2
–	~ 5 °C	COc1ccc(Cc2nccc3cc(OC)c(OC)cc23)cc1OC
